Assay [1] concerns p-p70 S6 Kinase (Thr389) in MCF-7 cells. Description: AlphaLISA Ultra pS6K1 assay. It counts as cell-based. To be noted: Homo sapiens, 1.5 h; MCF7 cells, 90 min. The essentials:
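MCF-7 cells seeded 20–24 h, given fresh medium 2 h, then treated with compounds 90 min (0.5% DMSO final). Cells lysed, lysates frozen at −80 °C, then Thr389-phosphorylated S6K1 detected by AlphaLISA Ultra with acceptor beads 2 h, then donor beads 2 h.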
For orientation: In Alpha technology, singlet oxygen from a donor bead excites a nearby acceptor bead.

Assay [2] concerns pS6K1 T389 and pAkt S473 in PC3 cells. Description: Western blot based pS6K1 and pAKT assay at 24 and 48 hour timepoints. It counts as cell-based. Here is the method: Example 57: Western Blot Based pS6K1 and pAKT Assay at 24 and 48 Hour Timepoints
Assay Protocol: • 1. Seed six well plate with 500,000 PC3 cells per well and incubate for 20˜24 hour. • 2. Add compounds into the cell plate. Incubate for 24 to 48 hours. • 4. Plate is placed on ice and the media is removed via aspiration. The wells are washed with 1 mL of 1x PBS and then fully aspirated. • 5. 110 μL of 1% Triton Lysis Buffer is added and each well is scraped vigorously. • 6. Cell homogenates are transferred to 1.5 mL eppendorf tubes on ice and spun down at 4° C. for 10 minutes at 10,000 rpm. • 7. Protein concentration of resulting cell lysates were quantified utilizing a Bradford assay and the samples run analyzed via Western blot on 4-12% Bis/Tris gels with 1×MES buffer. • 8. The gels were transferred onto membranes at 50V for 100 minutes, blocked with Odyssey Blocking buffer for 30 minutes then incubated overnight with primary antibody (pS6K1 T389 Rabbit or pAkt S473 Rabbit) overnight at 4° C. on a rotator. • 9. The membranes were washed 3× with TBS-T with a 5 minute incubation between each wash then incubated with secondary antibody (LiCor IRDye 800 Donkey Anti Rabbit) for at least 30 minutes. • 10. The membranes were washed 3× with TBS-T with a 5 minute incubation between each wash. • 11. The gels were then incubated for 5 minutes with PBS at room temperature then imaged using a Li-Cor.
Compounds that are not selective by comparing pS6K1 and pAKT IC50 by kinase assays are indicated by “NO” in the “mTORC1 selective @ 90 min” column of Table 4. […] Compounds that are not selective at the 24 hrs mark are indicated by “NO” in the “mTORC1 selective @ 24 hrs” column of Table 4. “N/A” stands for “not assayed” and “N/C” stands for “not calculated”.
In general terms: A western blot detects proteins with antibodies after separation by electrophoresis.

For orientation: IC50 means the concentration needed to halve the response being measured. Low readings indicate greater potency, high ones weaker potency.

A value given as a limit tells only on which side of the number the result lay.

In assay [1], `COCCOCCO[C@H]1C[C@@H]2CC[C@@H](C)[C@@](O)(O2)C(=O)C(=O)N2CCCC[C@H]2C(=O)O[C@H]([C@H](C)C[C@@H]2CC[C@@H](OC(F)F)[C@H](OC)C2)CC(=O)[C@H](C)/C=C(\C)[C@@H](O)[C@@H](OC)C(=O)[C@H](C)C[C@H](C)/C=C/C=C/C=C/1C` [I-4, (22E,24E,26E,27E,33R,34S,35R,36R,38S,40S,42S,43S,44R,45R,55R)-43-[(1R)-2-[(1S,3R,4R)-4-(difluoromethoxy)-3-methoxy-cyclohexyl]-1-methyl-ethyl]-44,55-dihydroxy-45-methoxy-42-[2-(2-methoxyethoxy)ethoxy]-33,34,35,36,46,47-hexamethyl-64,65-dioxa-56-azatricyclohexatriaconta-22,24,26(46),27(47)-tetraene-48,49,50,51,52-pentone] yielded a 50% inhibitory concentration (IC50) of 1 to 10 nM. Besides, the “mTORC1 selective @ 24 hrs” value in assay [2] is “Yes”.

As to `COCCO[C@@H]1CC[C@@H](C[C@@H](C)[C@@H]2CC(=O)[C@H](C)/C=C(\C)[C@@H](OC)[C@@H](OC)C(=O)[C@H](C)C[C@H](C)/C=C/C=C/C=C(\C)[C@@H](OCCOCCOC3COC3)C[C@@H]3CC[C@@H](C)[C@@](O)(O3)C(=O)C(=O)N3CCCC[C@H]3C(=O)O2)C[C@H]1OC` [I-69, (1R,9S,12S,15R,16E,18R,19R,21R,23S,24E,26E,28E,30S,32S,35R)-1-hydroxy-18,19-dimethoxy-12-[(1R)-2-[(1S,3R,4R)-3-methoxy-4-(2-methoxyethoxy)cyclohexyl]-1-methyl-ethyl]-15,17,21,23,29,35-hexamethyl-30-[2-[2-(oxetan-3-yloxy)ethoxy]ethoxy]-11,36-dioxa-4-azatricyclo[30.3.1.0^4,9]hexatriaconta-16,24,26,28-tetraene-2,3,10,14,20-pentone], the IC50 in assay [1] is ≥ 1000 nM. Besides, in assay [2], the “mTORC1 selective @ 24 hrs” value is “No”.

`CO[C@@H]1/C(C)=C/[C@@H](C)C(=O)C[C@@H]([C@H](C)C[C@@H]2CC[C@@H](OCCCO)[C@H](OC)C2)OC(=O)[C@@H]2CCCCN2C(=O)C(=O)[C@]2(O)O[C@@H](CC[C@H]2C)C[C@H](OCCOC2COC2)/C(C)=C/C=C/C=C/[C@@H](C)C[C@@H](C)C(=O)[C@@H]1OC` [I-45, (23E,25E,27E,28E,35R,36S,37R,38R,40S,42S,44S,45S,47R,48R,57R)-47,57-dihydroxy-45-[(1R)-2-[(1S,3R,4R)-4-(3-hydroxypropoxy)-3-methoxy-cyclohexyl]-1-methyl-ethyl]-48-methoxy-35,36,37,38,49,50-hexamethyl-44-[2-(oxetan-3-yloxy)ethoxy]-68,69-dioxa-58-azatricyclohexatriaconta-23,25,27(49),28(50)-tetraene-51,52,53,54,55-pentone]: the half-maximal inhibitory concentration (IC50) in assay [1] was < 1 nM. Moreover, in assay [2], the “mTORC1 selective @ 24 hrs” value is listed as “Yes”.

`CO[C@@H]1/C(C)=C/[C@@H](C)C(=O)C[C@@H]([C@H](C)C[C@@H]2CC[C@@H](OCCO)[C@H](OC)C2)OC(=O)[C@@H]2CCCCN2C(=O)C(=O)[C@]2(O)O[C@@H](CC[C@H]2C)C[C@H](OCCOCCOC2COC2)/C(C)=C/C=C/C=C/[C@@H](C)C[C@@H](C)C(=O)[C@@H]1OC` [I-62, (1R,9S,12S,15R,16E,18R,19R,21R,23S,24E,26E,28E,30S,32S,35R)-1-hydroxy-12-[(1R)-2-[(1S,3R,4R)-4-(2-hydroxyethoxy)-3-methoxy-cyclohexyl]-1-methyl-ethyl]-18,19-dimethoxy-15,17,21,23,29,35-hexamethyl-30-[2-[2-(oxetan-3-yloxy)ethoxy]ethoxy]-11,36-dioxa-4-azatricyclo[30.3.1.0^4,9]hexatriaconta-16,24,26,28-tetraene-2,3,10,14,20-pentone] showed an IC50 in assay [1] of 100 to 1000 nM. Moreover, the “mTORC1 selective @ 24 hrs” value in assay [2] is listed as “No”.

`COCCOCCO[C@H]1C[C@@H]2CC[C@@H](C)[C@@](O)(O2)C(=O)C(=O)N2CCCC[C@H]2C(=O)O[C@H]([C@H](C)C[C@@H]2CC[C@@H](OCCO)[C@H](OC)C2)CC(=O)[C@H](C)/C=C(\C)[C@@H](OC)[C@@H](OC)C(=O)[C@H](C)C[C@H](C)/C=C/C=C/C=C/1C` [I-37, (23E,25E,27E,28E,36R,37S,38R,39R,41S,43S,45S,46S,47R,48R,57R)-57-hydroxy-46-[(1R)-2-[(1S,3R,4R)-4-(2-hydroxyethoxy)-3-methoxy-cyclohexyl]-1-methyl-ethyl]-47,48-dimethoxy-45-[2-(2-methoxyethoxy)ethoxy]-36,37,38,39,49,50-hexamethyl-66,67-dioxa-58-azatricyclohexatriaconta-23,25,27(49),28(50)-tetraene-51,52,53,54,55-pentone] yielded a half-maximal inhibitory concentration (IC50) in assay [1] of 1 to 10 nM. The “mTORC1 selective @ 24 hrs” value in assay [2] was “Yes”.

Regarding `CO[C@@H]1/C(C)=C/[C@@H](C)C(=O)C[C@@H]([C@H](C)C[C@@H]2CC[C@@H](OC)[C@H](OC)C2)OC(=O)[C@@H]2CCCCN2C(=O)C(=O)[C@]2(O)O[C@@H](CC[C@H]2C)C[C@H](OCC2COCCO2)/C(C)=C/C=C/C=C/[C@@H](C)C[C@@H](C)C(=O)[C@@H]1OC` (stereo partly drawn) [I-40, (26E,28E,30E,31E,34R,35S,36R,37R,39S,41S,43S,44S,46R,47R,56R)-44-[(1R)-2-[(1S,3R,4R)-3,4-dimethoxycyclohexyl]-1-methyl-ethyl]-43-(1,4-dioxan-2-ylmethoxy)-56-hydroxy-46,47-dimethoxy-34,35,36,37,48,49-hexamethyl-66,67-dioxa-57-azatricyclohexatriaconta-26,28,30(48),31(49)-tetraene-50,51,52,53,54-pentone], the 50% inhibitory concentration (IC50) in assay [1] was ≥ 1000 nM. Besides, the “mTORC1 selective @ 24 hrs” value in assay [2] is on record as “Yes”.

`CO[C@@H]1/C(C)=C/[C@@H](C)C(=O)C[C@@H]([C@H](C)C[C@@H]2CC[C@@H](O)[C@H](OC)C2)OC(=O)[C@@H]2CCCCN2C(=O)C(=O)[C@]2(O)O[C@@H](CC[C@H]2C)C[C@H](OCC2COCCO2)/C(C)=C/C=C/C=C/[C@@H](C)C[C@@H](C)C(=O)[C@@H]1OC` (stereo partly drawn) [I-27, (25E,27E,29E,30E,33R,34S,35R,36R,38S,40S,42S,43S,45R,46R,55R)-42-(1,4-dioxan-2-ylmethoxy)-55-hydroxy-43-[(1R)-2-[(1S,3R,4R)-4-hydroxy-3-methoxy-cyclohexyl]-1-methyl-ethyl]-45,46-dimethoxy-33,34,35,36,47,48-hexamethyl-66,67-dioxa-56-azatricyclohexatriaconta-25,27,29(47),30(48)-tetraene-49,50,51,52,53-pentone] had a concentration for half-maximal inhibition (IC50) in assay [1] of 10 to 100 nM. The “mTORC1 selective @ 24 hrs” value in assay [2] is “Yes”.

In assay [1], `COCCOCCO[C@H]1C[C@@H]2CC[C@@H](C)[C@@](O)(O2)C(=O)C(=O)N2CCCC[C@H]2C(=O)O[C@H]([C@H](C)C[C@@H]2CC[C@@H](OC)[C@H](OC)C2)CC(=O)[C@H](C)/C=C(\C)[C@@H](OC)[C@@H](OC)C(=O)[C@H](C)C[C@H](C)/C=C/C=C/C=C/1C` [I-31, (24E,26E,28E,29E,35R,36S,37R,38R,40S,42S,44S,45S,46R,47R,56R)-45-[(1R)-2-[(1S,3R,4R)-3,4-dimethoxycyclohexyl]-1-methyl-ethyl]-56-hydroxy-46,47-dimethoxy-44-[2-(2-methoxyethoxy)ethoxy]-35,36,37,38,48,49-hexamethyl-64,65-dioxa-57-azatricyclohexatriaconta-24,26,28(48),29(49)-tetraene-50,51,52,53,54-pentone] displayed an IC50 of 10 to 100 nM. In assay [2], the “mTORC1 selective @ 24 hrs” value is recorded as “Yes”.

`COCCOCCO[C@H]1C[C@@H]2CC[C@@H](C)[C@@](O)(O2)C(=O)C(=O)N2CCCC[C@H]2C(=O)O[C@H]([C@H](C)C[C@@H]2CC[C@@H](OP(C)(C)=O)[C@H](OC)C2)CC(=O)[C@H](C)/C=C(\C)[C@@H](OC)[C@@H](OC)C(=O)[C@H](C)C[C@H](C)/C=C/C=C/C=C/1C` [I-34, (25E,27E,29E,30E,36R,37S,38R,39R,41S,43S,45S,46S,47R,48R,57R)-46-[(1R)-2-[(1S,3R,4R)-4-dimethylphosphoryloxy-3-methoxy-cyclohexyl]-1-methyl-ethyl]-57-hydroxy-47,48-dimethoxy-45-[2-(2-methoxyethoxy)ethoxy]-36,37,38,39,49,50-hexamethyl-66,67-dioxa-58-azatricyclohexatriaconta-25,27,29(49),30(50)-tetraene-51,52,53,54,55-pentone] yielded an IC50 in assay [1] of 1 to 10 nM. The “mTORC1 selective @ 24 hrs” value in assay [2] is “Yes”.

The record behind these values is US20220267352A1, “RAPAMYCIN ANALOGS AND USES THEREOF” (Anakuria Therapeutics, Inc., priority 2021, published 2022).
